Measurements: patent USRE48461E1, “Modulation of androgen receptor expression” (Ionis Pharmaceuticals, Inc., priority 2012, dated 2021)

Key:
[1] = test system: full-length AR; assay: Western blot of full-length AR in MDV3100-resistant C4-2B cells; assay type: cell-based, human; conditions: C4-2B MR cells (Example 16)
[2] = test system: AR-V7; assay: Western blot of AR-V7 in MDV3100-resistant C4-2B cells; assay type: cell-based, human; conditions: C4-2B MR cells (Example 16)
Description: ISIS 549372, ISIS 549434, and ISIS 554221 at 1 μM concentration of antisense oligonucleotide were each added to the culture media at 1 μM concentration for free uptake by the cells. After a treatment period of 2 days, cells were harvested in RIPA buffer containing protease inhibitors. The presence of bands for full-length AR, as well as the variant form, AR-V7, was detected by western blot using AR antibody (N-20, Santa Cruz).
Western analysis of full-length AR, as well as the AR-V7 variant, was also conducted in a manner similar to the assay described above.

[3] = test system: AR full-length mRNA; assay: AR full-length mRNA in CWR22-RV1 cells (RNAiMax, RTS3559); assay type: cell-based, human; conditions: 6 days
[4] = test system: V7 splice variant of the AR mRNA; assay: AR V7 splice variant mRNA in CWR22-RV1 cells (RT-PCR SYBR Green); assay type: cell-based, human; conditions: RNAiMax, 6 days
[5] = test system: CWR22-RV1 cells; assay: CWR22-RV1 cell proliferation (CellTiter 96); assay type: cell-based, human; conditions: RNAiMax, 6 days
[6] = test system: AR mRNA; assay: AR mRNA in C4-2B cells by free uptake (hAR_LTS00943); assay type: cell-based, human; conditions: 24 hrs; for Percent inhibition of AR full-length mRNA: free uptake
Description: Cells were plated at a concentration of 1,000 cells/well in 96-well plates to measure cell proliferation, and at 4,000 cells/well to measure target reduction. ISIS 549458, ISIS 549372, ISIS 549434, and ISIS 554221 were added individually at 0.04 μM, 0.20 μM, 1.00 μM, or 5.00 μM. After an incubation period of 24 hrs, mRNA levels were measured using hAR_LTS00943.

[7] = test system: C4-2B cells; assay: C4-2B cell proliferation by free uptake (MTT); assay type: cell-based, human; conditions: day 6
[8] = test system: LMR20 cells; assay: MDV3100 IC50 in LMR20 clone compared to parental LnCaP cells; assay type: cell-based, human
[9] = cynomolgus monkey, in vivo, sc, 40 mg/kg
Description: (§1) Prior to the study, the monkeys were kept in quarantine for a 30-day period, during which the animals were observed daily for general health. The monkeys were 2-4 years old and weighed between 2 and 4 kg. Thirteen groups of four randomly assigned male cynomolgus monkeys each were injected subcutaneously with ISIS oligonucleotide or PBS. PBS solution or ISIS oligonucleotides, at a dose of 40 mg/kg, were administered with a loading regimen consisting of four doses on the first week of the study (days 1, 3, 5, and 7), followed by a maintenance regimen consisting of once weekly administration starting on Day 14 (weeks 2 to 6). Subcutaneous injections were performed in clock-wise rotations at 4 sites on the back; one site per dose. The injection sites were delineated by tattoo, while sedated using ketamine, and were separated by a minimum of 3 cm.
Kidney function was also assessed by urinalysis. Fresh urine from all animals was collected on day 44 using a clean cage pan on wet ice. Food was removed overnight the day before fresh urine collection was done but water was supplied. The total protein and creatinine levels were measured using a Toshiba 120FR NEO automated chemistry analyzer (Toshiba Co., Japan) and the protein to creatinine ratio was calculated.

[10] = Body and organ weights in cynomolgus monkeys; conditions: cynomolgus monkey, 40 mg/kg s.c.
[11] = Plasma BUN and creatinine in cynomolgus monkeys; conditions: cynomolgus monkey, 40 mg/kg s.c., day 44
Description: as §1
To evaluate the effect of ISIS oligonucleotides on kidney function, the monkeys were fasted overnight. Approximately, 1.5 mL of blood samples were collected from all the study groups on day 44. Blood was collected in tubes without anticoagulant for serum separation. The tubes were kept at room temperature for a minimum of 90 min and then centrifuged at 3,000 rpm for 10 min. Levels of BUN and creatinine were measured using a Toshiba 120FR NEO chemistry analyzer (Toshiba Co., Japan).

[12] = Liver function markers in cynomolgus monkey plasma; conditions: 40 mg/kg s.c., day 44
[13] = Full-length oligonucleotide concentration in kidney and liver of cynomolgus monkeys; conditions: cynomolgus monkey, 40 mg/kg subcutaneously
Description: as §1
The concentrations of the full-length oligonucleotide in the kidney and the liver of select treatment groups were measured. The method used is a modification of previously published methods (Leeds et al., 1996; Geary et al., 1999) which consist of a phenol-chloroform (liquid-liquid) extraction followed by a solid phase extraction.

Q: What does the source list for “GTTGATTTAATGGTTG (all phosphorothioate, sugars by position not given here; further chemistry not fully specified) [ISIS 549458]”?
A: levels of full-length AR (Western analysis) [1]: reduced levels of full-length AR and AR-V7; levels of AR-V7 (Western analysis) [2]: reduced levels of full-length AR and AR-V7; Percent inhibition of AR full-length mRNA ([3]; dose 5.0 nM): 41%; Percent inhibition of AR full-length mRNA ([3]; dose 16.7 nM): 61%; Percent inhibition of AR full-length mRNA ([3]; dose 50.0 nM): 78%; Percent inhibition of AR splice variant, V7 ([4]; dose 5.0 nM): 34%; Percent inhibition of AR splice variant, V7 ([4]; dose 16.7 nM): 58%; Percent inhibition of AR splice variant, V7 ([4]; dose 50.0 nM): 82%; Percent inhibition of cell proliferation ([5]; dose 5.0 nM): 0%; Percent inhibition of cell proliferation ([5]; dose 16.7 nM): 17%; Percent inhibition of cell proliferation ([5]; dose 50.0 nM): 40%; AR mRNA expression ([6]; free uptake 0.04-5.00 μM): inhibited AR mRNA expression more potently than ISIS 554221; Percent inhibition of AR full-length mRNA ([6]; dose 0.04 μM): 16%; Percent inhibition of AR full-length mRNA ([6]; dose 0.20 μM): 48%; Percent inhibition of AR full-length mRNA ([6]; dose 1.00 μM): 80%; Percent inhibition of AR full-length mRNA ([6]; dose 5.00 μM): 86%; Percent inhibition of cell proliferation ([7]; dose 0.04 μM): 7%; Percent inhibition of cell proliferation ([7]; dose 0.20 μM): 31%; Percent inhibition of cell proliferation ([7]; dose 1.00 μM): 45%; Percent inhibition of cell proliferation ([7]; dose 5.00 μM): 41%

Q: With `CNC(=O)c1ccc(N2C(=S)N(c3ccc(C#N)c(C(F)(F)F)c3)C(=O)C2(C)C)cc1F` [MDV3100, 4-(3-(4-cyano-3-(trifluoromethyl)phenyl)-5,5-dimethyl-4-oxo-2-thioxoimidazolidin-1-yl)-2-fluoro-N-methylbenzamide, reference compound] as the compound, how does the “increase in IC50 of MDV3100 in LMR20 compared to parental LnCaP cells” value [8] read?
A: approximately ten-fold increase in IC50

Q: Which Urine protein/creatinine ratio [9] does the source give for “TTGATTTAATGGTTGC [ISIS 560131] (MOE and (S)-cEt gapmer chemistry, further chemistry not given here)” here?
A: 0.02

Q: And the “tolerability: body and organ weights” value [10]?
A: well tolerated in terms of the body and organ weights of the monkeys

Q: And the “tolerability: kidney function” value [11]?
A: well tolerated in terms of the kidney function of the monkeys

Q: And the “tolerability: liver function markers” value [12]?
A: well tolerated in terms of the liver function markers

Q: What about the “Oligonucleotide concentration, Kidney” value [13] of the same compound?
A: 2029 μg/g tissue
